{
  "source": "patent US12661342B2",
  "about": "“Heteroaryl compounds and therapeutic uses thereof in conditions associated with the alteration of the activity of beta-glucocerebrosidase” (GT GAIN THERAPEUTICS SA, priority 2019, dated 2026)",
  "data": [
    {"biological_target": "T1, β-glucocerebrosidase (Homo sapiens, UniProt P04062, L483P)", "T1 construct": "host or cells: human Gaucher disease patient fibroblasts GM08760A", "T1 sequence (P04062 40-536 L483P)": "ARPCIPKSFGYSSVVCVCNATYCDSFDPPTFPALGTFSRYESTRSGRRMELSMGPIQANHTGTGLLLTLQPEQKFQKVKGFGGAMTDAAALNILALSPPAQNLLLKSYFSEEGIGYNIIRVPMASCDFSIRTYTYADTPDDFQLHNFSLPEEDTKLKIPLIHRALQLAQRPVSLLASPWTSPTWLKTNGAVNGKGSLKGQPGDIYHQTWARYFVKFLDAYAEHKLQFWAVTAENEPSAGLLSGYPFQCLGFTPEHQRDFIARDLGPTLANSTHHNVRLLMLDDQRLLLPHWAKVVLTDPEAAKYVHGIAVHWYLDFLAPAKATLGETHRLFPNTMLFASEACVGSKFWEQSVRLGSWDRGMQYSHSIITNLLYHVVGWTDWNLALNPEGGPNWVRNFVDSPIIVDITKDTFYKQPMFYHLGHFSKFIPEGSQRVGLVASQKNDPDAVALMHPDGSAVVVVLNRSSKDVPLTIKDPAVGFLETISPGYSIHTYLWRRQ", "assay": "Enhancement of β-glucocerebrosidase activity measured in Gaucher disease fibroblasts (4-MU-β-D-glucopyranoside substrate, intact cells)", "type": "cell-based", "design": "key: Increase in comparison with non-treated of >2.0 fold is shown as A; Increase in comparison with non-treated of >1.7-2.0 fold is shown as B; Increase in comparison with non-treated of 1.2-1.7 fold is shown as C; D means that no increase compared with non-treated cells was detected in this method", "conditions": "GBA fibroblasts bearing L444P (GM08760A, homozygous p.L444P); compound at concentrations between 6 and 50 μM; 4 days incubation", "procedure": "Human fibroblasts from a patient with Gaucher disease homozygous for p.L444P mutation (GM08760A) were purchased from Coriell Institute for Medical Research (Camden, NJ, USA).\nFibroblasts were seeded at 5×10^3 cells per well in 96-well cell culture plates (Corning, NY, USA) in Dulbecco's Modified Eagle's Media (DMEM) supplemented with 10% of fetal bovine serum (FBS), 1% penicillin/streptomycin (P/S) (Thermo Fisher Scientific, Waltham, MA, USA) and grown at 37° C., 5% CO2 overnight for cell attachment. Subsequently, cells were incubated in the absence or presence of the compounds at the desired concentration for 4 days. After incubation, cells were washed twice with phosphate-buffered saline (PBS) and enzyme activity assay was performed.\nβ-glucocerebrosidase activity in intact cultured cells was measured by using 4-methylumbelliferyl-β-D-glucopyranoside substrate (Apollo Scientific, UK). Briefly, cells were incubated with 4-MU-β-D-glucopyranoside in 0.1 M acetate buffer pH=4 at 37° C. for 1 hour. The reaction was stopped by adding 200 μL at 100 mM glycine-NaOH pH=10.7. The liberated 4-MU was measured on a GloMax Discover plate reader (Promega, Madison, WI, USA) with and excitation at 340 nm and emission at 460 nm. Enzyme activities were expressed in treated cells as X-fold increase in comparison with non-treated cells (X=1 represents no enhancement).\nThe capacity of the compounds of the disclosure to produce an increase in enzyme activity in GBA fibroblasts bearing L444P at concentrations between 6 and 50 μM is denoted as follows: • Increase in comparison with non-treated of >2.0 fold is shown as A • Increase in comparison with non-treated of >1.7-2.0 fold is shown as B • Increase in comparison with non-treated of 1.2-1.7 fold is shown as C • D means that no increase compared with non-treated cells was detected in this method • ND means “not determined”", "values": [
      {"smiles": "Nc1cc(Nc2ccccc2Cl)cc(C(=O)NC2Cc3ccccc3C2)n1", "note": "[Example 72, 6-Amino-4-((2-chlorophenyl)amino)-N-(2,3-dihydro-1H-inden-2-yl)picolinamide]", "Range: increase in enzyme activity in comparison with non-treated cells (Enzyme activity assay for compounds of Examples 33-141)": "D"},
      {"smiles": "Nc1cc(Nc2ccc(F)cc2)nc(C(=O)NC2Cc3ccccc3C2)c1", "note": "[Example 98, 4-Amino-N-(2,3-dihydro-1H-inden-2-yl)-6-((4-fluorophenyl)amino)picolinamide]", "Range: increase in enzyme activity in comparison with non-treated cells (Enzyme activity assay for compounds of Examples 33-141)": "B (Increase in comparison with non-treated of >1.7-2.0 fold is shown as B)"},
      {"smiles": "COc1cccc(Nc2cc(N)nc(C(=O)NC3Cc4ccccc4C3)c2)c1.Cl", "note": "[Example 141, 6-Amino-N-(2,3-dihydro-1H-inden-2-yl)-4-((3-methoxyphenyl)amino)picolinamide hydrochloride]", "Range: increase in enzyme activity in comparison with non-treated cells (Enzyme activity assay for compounds of Examples 33-141)": "C (Increase in comparison with non-treated of 1.2-1.7 fold is shown as C)"},
      {"smiles": "CN(C(=O)c1cc(Nc2ccccc2O)nc(N)n1)C1CCc2ccccc2C1", "note": "(centres unmarked) [Example 83, 2-amino-6-((2-hydroxyphenyl)amino)-N-methyl-N-(1,2,3,4-tetrahydronaphthalen-2-yl)-pyrimidine-4-carboxamide]", "Range: increase in enzyme activity in comparison with non-treated cells (Enzyme activity assay for compounds of Examples 33-141)": "D"},
      {"smiles": "Nc1cc(Nc2ccccc2O)nc(C(=O)N2Cc3ccccc3C2)c1", "note": "[Example 104, (4-Amino-6-((2-hydroxyphenyl)amino)pyridin-2-yl)(isoindolin-2-yl)methanone]", "Range: increase in enzyme activity in comparison with non-treated cells (Enzyme activity assay for compounds of Examples 33-141)": "C (Increase in comparison with non-treated of 1.2-1.7 fold is shown as C)"},
      {"smiles": "Nc1cc(Nc2ccc(F)cc2O)cc(C(=O)NC2Cc3ccccc3C2)n1", "note": "[Example 69, 6-Amino-N-(2,3-dihydro-1H-inden-2-yl)-4-((4-fluoro-2-hydroxyphenyl)amino)picolinamide]", "Range: increase in enzyme activity in comparison with non-treated cells (Enzyme activity assay for compounds of Examples 33-141)": "B (Increase in comparison with non-treated of >1.7-2.0 fold is shown as B)"},
      {"smiles": "Cc1ccc(Nc2cc(N)nc(C(=O)NC3Cc4ccccc4C3)c2)c(O)c1", "note": "[Example 68, 6-Amino-N-(2,3-dihydro-1H-inden-2-yl)-4-((2-hydroxy-4-methylphenyl)amino)picolinamide]", "Range: increase in enzyme activity in comparison with non-treated cells (Enzyme activity assay for compounds of Examples 33-141)": "C (Increase in comparison with non-treated of 1.2-1.7 fold is shown as C)"},
      {"smiles": "COc1ccccc1Nc1cc(N)cc(C(=O)N(C)C2Cc3ccccc3C2)n1", "note": "[Example 106, 4-Amino-N-(2,3-dihydro-1H-inden-2-yl)-6-((2-methoxyphenyl)amino)-N-methyl-picolinamide]", "Range: increase in enzyme activity in comparison with non-treated cells (Enzyme activity assay for compounds of Examples 33-141)": "C (Increase in comparison with non-treated of 1.2-1.7 fold is shown as C)"},
      {"smiles": "Nc1cc(C(=O)NC2CCc3ccccc3C2)cc(Nc2ccccc2O)n1", "note": "(centres unmarked) [Example 45, 2-Amino-6-((2-hydroxyphenyl)amino)-N-(1,2,3,4-tetrahydronaphthalen-2-yl)isonicotinamide]", "Range: increase in enzyme activity in comparison with non-treated cells (Enzyme activity assay for compounds of Examples 33-141)": "C (Increase in comparison with non-treated of 1.2-1.7 fold is shown as C)"},
      {"smiles": "COc1cccc(Nc2nc(N)c3c(n2)CCN(Cc2ccccc2)C3)c1.Cl", "note": "[Example 31, 6-Benzyl-N2-(3-methoxyphenyl)-5,6,7,8-tetrahydropyrido[4,3-d]pyrimidine-2,4-diamine hydrochloride]", "Range: increase in enzyme activity in comparison with non-treated cells (Enzyme activity assay for exemplified compounds)": "B (Increase in comparison with non-treated of >1.7-2.0 fold is shown as B)"},
      {"smiles": "Cl.Nc1cc(Nc2ccccc2F)nc(C(=O)NC2Cc3ccccc3C2)c1", "note": "[Example 139, 4-Amino-N-(2,3-dihydro-1H-inden-2-yl)-6-((2-fluorophenyl)amino)picolinamide hydrochloride]", "Range: increase in enzyme activity in comparison with non-treated cells (Enzyme activity assay for compounds of Examples 33-141)": "C (Increase in comparison with non-treated of 1.2-1.7 fold is shown as C)"},
      {"smiles": "COc1ccccc1Nc1cc(N)cc(C(=O)NC2Cc3ccccc3C2)n1.Cl", "note": "[Example 133, 4-amino-N-(2,3-dihydro-1H-inden-2-yl)-6-((2-methoxyphenyl)amino)picolinamide hydrochloride]", "Range: increase in enzyme activity in comparison with non-treated cells (Enzyme activity assay for compounds of Examples 33-141)": "C (Increase in comparison with non-treated of 1.2-1.7 fold is shown as C)"},
      {"smiles": "Nc1nc(Nc2ccccc2O)nc2c1CCN(Cc1ccccc1)C2", "note": "[Example 29, 2-((4-Amino-7-benzyl-5,6,7,8-tetrahydropyrido[3,4-d]pyrimidin-2-yl)amino)phenol]", "Range: increase in enzyme activity in comparison with non-treated cells (Enzyme activity assay for exemplified compounds)": "B (Increase in comparison with non-treated of >1.7-2.0 fold is shown as B)"},
      {"smiles": "Nc1cc(Nc2ccccc2O)cc(C(=O)N2CCc3ccccc3C2)n1", "note": "[Example 49, (6-Amino-4-((2-hydroxyphenyl)amino)pyridin-2-yl)(3,4-dihydroisoquinolin-2(1H)-yl)methanone]", "Range: increase in enzyme activity in comparison with non-treated cells (Enzyme activity assay for compounds of Examples 33-141)": "B (Increase in comparison with non-treated of >1.7-2.0 fold is shown as B)"},
      {"smiles": "Nc1nc2c(c(Nc3ccccc3O)n1)CCN(Cc1ccccc1)C2", "note": "[Example 25, 2-((2-Amino-7-benzyl-5,6,7,8-tetrahydropyrido[3,4-d]pyrimidin-4-yl)amino)phenol]", "Range: increase in enzyme activity in comparison with non-treated cells (Enzyme activity assay for exemplified compounds)": "B (Increase in comparison with non-treated of >1.7-2.0 fold is shown as B)"},
      {"smiles": "Nc1cc(Nc2ccccc2O)cc(C(=O)Nc2ccccc2)n1", "note": "[Example 65, 6-Amino-4-((2-hydroxyphenyl)amino)-N-phenylpicolinamide]", "Range: increase in enzyme activity in comparison with non-treated cells (Enzyme activity assay for compounds of Examples 33-141)": "A (Increase in comparison with non-treated of >2.0 fold is shown as A)"},
      {"smiles": "CN(C(=O)c1cc(N)nc(N[C@H]2CCCC[C@@H]2O)n1)c1ccccc1", "note": "[Example 33, 6-Amino-2-(((1S,2S)-2-hydroxycyclohexyl)amino)-N-methyl-N-phenylpyrimidine-4-carboxamide]", "Range: increase in enzyme activity in comparison with non-treated cells (Enzyme activity assay for compounds of Examples 33-141)": "D"},
      {"smiles": "Nc1cc(Nc2cccnc2)cc(C(=O)Nc2ccccc2)n1", "note": "[Example 80, 6-Amino-N-phenyl-4-(pyridin-3-ylamino)picolinamide]", "Range: increase in enzyme activity in comparison with non-treated cells (Enzyme activity assay for compounds of Examples 33-141)": "C (Increase in comparison with non-treated of 1.2-1.7 fold is shown as C)"},
      {"smiles": "COc1ccccc1Nc1cc(N)nc(C(=O)Nc2ccccc2)c1", "note": "[Example 53, 6-Amino-4-((2-methoxyphenyl)amino)-N-phenylpicolinamide]", "Range: increase in enzyme activity in comparison with non-treated cells (Enzyme activity assay for compounds of Examples 33-141)": "C (Increase in comparison with non-treated of 1.2-1.7 fold is shown as C)"},
      {"smiles": "COc1cccc(Nc2cc(N)cc(C(=O)NC3Cc4ccccc4C3)n2)c1", "note": "[Example 100, 4-Amino-N-(2,3-dihydro-1H-inden-2-yl)-6-((3-methoxyphenyl)amino)picolinamide]", "Range: increase in enzyme activity in comparison with non-treated cells (Enzyme activity assay for compounds of Examples 33-141)": "A (Increase in comparison with non-treated of >2.0 fold is shown as A)"},
      {"smiles": "COc1ccccc1Nc1cc(N)cc(C(=O)N(C)c2ccccc2)n1", "note": "[Example 113, 6-(2-Methoxyphenylamino)-4-amino-N-methyl-N-phenylpyridine-2-carboxamide]", "Range: increase in enzyme activity in comparison with non-treated cells (Enzyme activity assay for compounds of Examples 33-141)": "C (Increase in comparison with non-treated of 1.2-1.7 fold is shown as C)"},
      {"smiles": "Cl.Nc1cc(Nc2cccc(F)c2)nc(C(=O)NC2Cc3ccccc3C2)c1", "note": "[Example 138, 4-Amino-N-(2,3-dihydro-1H-inden-2-yl)-6-((3-fluorophenyl)amino)picolinamide hydrochloride]", "Range: increase in enzyme activity in comparison with non-treated cells (Enzyme activity assay for compounds of Examples 33-141)": "A (Increase in comparison with non-treated of >2.0 fold is shown as A)"},
      {"smiles": "Nc1nc(Nc2cccc(Br)c2)nc(C(=O)NC2CCc3ccccc3C2)n1", "note": "(centres unmarked) [Example 19, 4-Amino-6-((3-bromophenyl)amino)-N-(1,2,3,4-tetrahydronaphthalen-2-yl)-1,3,5-triazine-2-carboxamide]", "Range: increase in enzyme activity in comparison with non-treated cells (Enzyme activity assay for exemplified compounds)": "C (Increase in comparison with non-treated of 1.2-1.7 fold is shown as C)"}
    ]}
  ]
}
